Laboratory results published in US20140066370A1, “Polypeptide Conjugate” (priority 2009, published 2014).
Like-named read-outs stand apart in the source and are kept apart here. Marks after values point to notes of the source that are not given here.

Legend:
[1] = tested on: diet-induced obese (DIO) male Sprague Dawley rats; assay: DIO rat 4-week constant sc infusion: body weight; assay type: in vivo; conditions: DIO rats
Description: (§1) Various metabolic and PK parameters were evaluated.
(§2) Study Design. The Polypeptide Conjugates were tested relative to vehicle (50% DMSO in sterile water) and parent compounds alone and in combination (see Table 1).
(§3) Food intake and body weight were measured weekly. Body composition was assessed on day −1 and day 28 using an NMR instrument (Echo Medical Systems, Houston, Tex.). Adiposity (percent fat mass) was defined as the amount of fat mass relative to body weight (fat mass/body weight×100). Blood was collected via tail vein on day 14. On day 28 a sample of blood was drawn via the jugular vein and animals were euthanized by isoflurane overdose. Mini-pumps were immediately removed, animals were subjected to a brief NMR scan, and tissues were collected for future histological examination and preliminary toxicological assessment.
(§4) Statistical Analysis. Data were analyzed using one-way analysis of variance (ANOVA) with Newman-Keuls post-hoc comparisons. Significance was assumed for p<0.05. Graphs were generated using Prism 4 for Windows (Graphpad Software, San Diego, Calif.). All data points are expressed as mean±SEM.

[2] = tested on: diet-induced obese (DIO) male Sprague Dawley rats; assay: DIO rat 4-week constant sc infusion: cumulative food intake; assay type: in vivo; conditions: highest dose tested (100 nmol/kg/d)
Description: as §1, §2, §3, §4

[3] = tested on: diet-induced obese (DIO) male Sprague Dawley rats; assay: DIO rat 4-week sc infusion: body composition by NMR; assay type: in vivo
Description: as §1, §2, §3, §4
To correct for loss of body weight, reductions in fat and lean mass were adjusted for terminal body weight to calculate the change in adiposity (percent fat mass) and change in percent lean mass.

[4] = tested on: diet-induced obese (DIO) male Sprague Dawley rats; assay: DIO rat 4-week sc infusion: hormone and metabolite analyses (HbA1c, insulin, lipids, glucose); assay type: in vivo; conditions: for Insulin 14 day / Insulin 28 day: fed state plasma; for Glucose / HDL cholesterol / Total cholesterol / Triglycerides: plasma after 28 days
Description: as §1, §2, §3, §4
(§5) Hormone and metabolite analyses. Plasma levels of study drug were measured at day 14 and termination by an ELISA. Whole blood percent hemoglobin A1c (% HbA1c), plasma triglyceride, total cholesterol, HDL cholesterol and plasma glucose at day 14 and at termination were measured using an Olympus bioanalyzer (Olympus America Diagnostics). Plasma insulin levels at day 14 and at termination were analyzed by an ELISA kit (Rat/Mouse Insulin ELISA, Linco Diagnostics).
Plasma parameters. The effects of the parent and Polypeptide Conjugate compounds on the following plasma parameters were determined: percent hemoglobin A1c (HbA1c), fed state plasma insulin, and concentration of the Polypeptide Conjugate in plasma, at 14 and 28 days.

[5] = DIO rats, sc infusion
Description: as §1, §2, §3, §5

[6] = tested on: NIH/Swiss female mice; assay: basal glucose lowering assay (Oral Glucose Tolerance Test; OGTT); assay type: in vivo, mouse; conditions: IP at t=-5 min, 4-hour fasted mice, glucose gavage […], blood glucose at t=30 minutes
Description: Polypeptide Conjugates and parent compounds were analyzed in an in vivo basal glucose lowering assay. This assay reflects the conjugate polypeptide's ability to enhance insulin-mediated glucose clearance of orally administered glucose challenge (Oral Glucose Tolerance Test; OGTT). The OGTT is used to diagnose diabetes, although the simpler fasting plasma glucose test, which measures a subject's plasma glucose level after fasting for at least eight hours, is preferred. The following procedure was used: Test compound at various concentrations was injected intraperitoneally (IP) at t=−5 min to 4-hour fasted NIH/Swiss female mice. Glucose gavage (1.5 g/kg) was given at t=0. Sample was taken at t=30 minutes as tail blood glucose using a OneTouch® Ultra® (LifeScan, Inc., Milpitas, Calif.). Significant effects were identified by ANOVA (p<0.05), followed by Dunnett's post test using GraphPad Prism version 4.00 for Windows (GraphPad Software, San Diego Calif.).

[7] = tested on: male Sprague Dawley rats; assay: delay of gastric emptying (acetaminophen appearance in plasma); assay type: in vivo, rat; conditions: 1 nmol/kg single sc injection
Description: Polypeptide Conjugates and parent compounds were analyzed for their ability to delay gastric emptying in rats. […] Rats then received an oral gavage of 33 mg acetaminophen/1 ml Orablend (Paddock Laboratories, Inc., MN USA) at t=3.5 hr, 5.5 hr or 7.5 hr post-injection. Blood was collected for measurement of acetaminophen at 4 hr, 6 hr or 8 hr after SC injection. Gastric emptying was assessed by the appearance of acetaminophen in plasma 30 min after oral gavage.

[8] = tested on: ob/ob mice; assay: 28 days of exposure in ob/ob mice (obese and diabetic); assay type: in vivo, mouse
[9] = in vivo blood calcium lowering (amylin agonist property)
[10] = acute reduction of food intake; assay type: in vivo
[11] = human plasma, 5 hr incubation; detection limit 10%

## HGEGTFTSDLSKQLEEEAVRLFIEWLKQGGPSKEIISGGGKCNTATCVLGRLSQELHRLQ TYPRTNTGSNTY-NH2 [Cmpd 2A]
[1]
  potency at reducing body weight via sustained infusion relative to Cmpd 3A: several fold more potent
[1]; sc infusion, 100 nmol/kg/d
  four week vehicle-corrected weight loss: −31.5±2.7%
[1]; sc infusion, 100 nmol/kg/d group
  Maximal weight loss: −27.8±5.3%
[1]; sc infusion, doses of Table 1 (conjugates 3, 10, 30 and 100 nmol/kg/d), p<0.05
  body weight over the 28 day treatment relative to vehicle: dose-dependently reduced body weight significantly
[2]
  total food intake relative to single parent peptide administration: significantly reduced
[3]; 3 nmol/kg/d, day 28
  Terminal Fat Mass: 71.4 ± 12.9^a,b g
  Terminal Lean Mass: 330.5 ± 7.3^a,b g
[3]; 10 nmol/kg/d, day 28
  Terminal Fat Mass: 35.8 ± 7.7^c,d g
  Terminal Lean Mass: 280.6 ± 22.6^b g
[3]; 30 nmol/kg/d, day 28
  Terminal Fat Mass: 32.4 ± 3.8^c,d g
  Terminal Lean Mass: 306.5 ± 13.2^a,b g
[3]; 100 nmol/kg/d, day 28
  Terminal Fat Mass: 12.7 ± 4.3^d g
  Terminal Lean Mass: 277.8 ± 17.8^b g
  change in adiposity (percent fat mass): −12.2±1.3%
[3]; all doses of Table 1, day 28
  adiposity compared to vehicle controls: significantly reduced
[3]; all doses, day 28
  percent lean mass relative to vehicle controls: did not alter percent lean mass
[4]; 3 nmol/kg/day
  HbA1c 14 day: 4.9 ± 0.1%
  Insulin 14 day: 1.8 ± 0.6^b ng/mL
  HbA1c 28 day: 4.6 ± 0.1%
  Insulin 28 day: 2.2 ± 0.9 ng/mL
  Glucose: 132 ± 9 mg/dL
  HDL cholesterol: 33 ± 2 mg/dL
  Total cholesterol: 116 ± 8 mg/dL
  Triglycerides: 295 ± 75^b mg/dL
[4]; 10 nmol/kg/day
  HbA1c 14 day: 4.9 ± 0.1^b %
  Insulin 14 day: 1.5 ± 0.2^b ng/mL
  HbA1c 28 day: 4.6 ± 0.1%
  Insulin 28 day: 1.0 ± 0.2 ng/mL
  Glucose: 115 ± 6 mg/dL
  HDL cholesterol: 33 ± 5 mg/dL
  Total cholesterol: 115 ± 14 mg/dL
  Triglycerides: 146 ± 41^b mg/dL
[4]; 30 nmol/kg/day
  HbA1c 14 day: 4.8 ± 0.1%
  Insulin 14 day: 1.8 ± 0.5^b ng/mL
  HbA1c 28 day: 4.6 ± 0.1%
  Insulin 28 day: 0.8 ± 0.1 ng/mL
  Glucose: 111 ± 2 mg/dL
  HDL cholesterol: 32 ± 1 mg/dL
  Total cholesterol: 112 ± 4 mg/dL
  Triglycerides: 128 ± 25^b mg/dL
[4]; 100 nmol/kg/day
  HbA1c 14 day: 4.8 ± 0.1%
  Insulin 14 day: 1.2 ± 0.2^b ng/mL
  HbA1c 28 day: 4.5 ± 0.1%
  Insulin 28 day: 0.7 ± 0.1 ng/mL
  Glucose: 110 ± 4 mg/dL
  HDL cholesterol: 30 ± 1 mg/dL
  Total cholesterol: 107 ± 3 mg/dL
  Triglycerides: 139 ± 17^b mg/dL
[5]; 3 nmol/kg/day
  plasma drug level (Cmpd 2A or Cmpd 1A) 14 day: 15 ± 6^a ng/mL
  plasma drug level (Cmpd 2A or Cmpd 1A) 28 day: 65 ± 35^a ng/mL
[5]; 10 nmol/kg/day
  plasma drug level (Cmpd 2A or Cmpd 1A) 14 day: 48 ± 16^a ng/mL
  plasma drug level (Cmpd 2A or Cmpd 1A) 28 day: 345 ± 67^a ng/mL
[5]; 30 nmol/kg/day
  plasma drug level (Cmpd 2A or Cmpd 1A) 14 day: 65 ± 7^a ng/mL
  plasma drug level (Cmpd 2A or Cmpd 1A) 28 day: 540 ± 232^a ng/mL
[5]; 100 nmol/kg/day
  plasma drug level (Cmpd 2A or Cmpd 1A) 14 day: 284 ± 79^b ng/mL
  plasma drug level (Cmpd 2A or Cmpd 1A) 28 day: 1985 ± 717^b ng/mL
[6]
  ED50 in OGTT: 1.4 nmol/kg
[7]; 4 hr
  Percent Inhibition of Gastric Emptying 4 hr: 79
[7]; 6 hr
  Percent Inhibition of Gastric Emptying 6 hr: 49
[7]; 8 hr
  Percent Inhibition of Gastric Emptying 8 hr: 4
[8]
  HbA1c: HbA1c reduction
  body weight: body weight loss
  fasted blood glucose: fasted blood glucose-lowering
[9]
  blood calcium: lower blood calcium
[10]
  potency at reducing food intake acutely compared with Cmpd 3A: more potent
[11]
  metabolites detected: No metabolites were detected
